The subject of assay [1] is P. falciparum TM91C235. Kind of assay: Testing of compounds against P. falciparum strain TM91C235. Type of assay: cell-based. As to conditions: Plasmodium falciparum. From the text:
(§1) Parasitic Lethality: The geldanamycin derivatives were subjected to further testing for lethality to the P. falciparum parasite itself. IC50 values were then obtained as illustrated in Table 1 in Example 3. Samples of the literature compound 17-N-allyl-17-demethoxygeldanamycin was synthesized and tested for killing of parasites. Preferably the drugs are selective for parasitic hsp90 homologs over human hsp90 and have minimal human toxicity. Geldanamycin derivatives of this type have potential for being novel drugs in the treatment of parasitic diseases. The medical community will be able to use these new anti-infective medications alone or in combination with other anti-infective medications. For example, the geldanamycin derivatives of the present invention can be used in combination with chloroquine, since geldanamycin and chloroquine are synergistic inhibitors of Plasmodium falciparum growth as described in Kumar et al. Malaria Journal 2:30 (2003).
(§2) Both parasite strains are chloroquine and pyrimethamine resistant and TM91C235 is also mefloquine resistant.

Assay [2] has as its system P. falciparum W2. The assay is described as follows: Testing of compounds against P. falciparum strain W2. Type of assay: cell-based. As to conditions: Plasmodium falciparum.
Description: as §1, §2

Setting [3] is: target strain TM91C235 (chloroquine, pyrimethamine and mefloquine resistant), read-out: IC50.
Setting [4] is: target strain TM91C235 (chloroquine, pyrimethamine and mefloquine resistant), read-out: IC90.
The mark [5] stands for this setting: target strain W2 (chloroquine and pyrimethamine resistant), read-out: IC50.
Setting [6] is: target strain W2 (chloroquine and pyrimethamine resistant), read-out: IC90.

Where a name gives a salt, the structure may show the parent alone. Read-outs that look alike come from different tables or passages of the source.

IC50 and IC90 data for nine compounds are collected here from patent US20070207992A1, “Geldanamycin derivatives and method of use thereof” (Board of Trustees of Michigan State University, priority 2006, published 2007).

A word on the IC50: it is the concentration needed to halve the response being measured. As usually defined, the IC90 is the concentration needed for an effect of 90%. For the compound `CCN(CC)CCCC(C)Nc1ccnc2cc(Cl)ccc12` (stereo not drawn) [Chloroquine, reference compound], in assay [1], the IC50 is 0.125 µg/mL and the 90% effect concentration (IC90) stood at 0.16 µg/mL. Moreover, in assay [2] (W2), the half-inhibitory concentration (IC50) is 0.0297 µg/mL and the IC90 came out at 0.0378 µg/mL.
Consider `CO[C@H]1/C=C\C=C(/C)C(=O)NC2=CC(=O)C(N3CCC3)=C(C[C@@H](C)C[C@H](OC)[C@H](OC(=O)CCCN)[C@@H](C)/C=C(\C)[C@@H]1OC(N)=O)C2=O` [Compound A, 11-O-(4-Aminobutyryl)-17-(1-azetidinyl)-17-demethoxygeldanamycin trifluoroacetate], for which the 50% inhibitory concentration (IC50) was determined as 1.03 µg/mL in assay [1] (setting [3]) and 0.65 µg/mL in assay [2] (setting [5]). The 90% effect concentration (IC90) in assay [1] (setting [4]) turned out to be 2.53 µg/mL; in assay [2] (setting [6]), 1.79 µg/mL.
With `CCCC(=O)O[C@H]1/C(C)=C/[C@H](C)[C@@H](O)[C@@H](OC)C[C@H](C)CC2=C(N3CCC3)C(=O)C=C(NC(=O)/C(C)=C/C=C\[C@@H]1OC)C2=O` [Compound B, 17-(1-Azetidinyl)-7-butyryl-7-decarbamyl-17-demethoxygeldanamycin], the values for the IC50 in assay [1] (setting [3]) and in assay [2] (setting [5]) were 2.71 µg/mL and 0.786 µg/mL, respectively. The IC90 is 4.02 µg/mL in assay [1] (setting [4]) and 2.73 µg/mL in assay [2] (setting [6]).
`CO[C@H]1/C=C\C=C(/C)C(=O)NC2=CC(=O)C(N3CCC3)=C(C[C@@H](C)C[C@H](OC)[C@H](O)[C@@H](C)/C=C(\C)[C@@H]1OC(=O)C1CC1)C2=O` [Compound C, 17-(1-Azetidinyl)-7-(cyclopropanyl)carbonyl-7-decarbamyl-17-demethoxygeldanamycin]: the IC50 in assay [1] (setting [3]) was 2.64 µg/mL; in assay [2] (setting [5]) it was 0.875 µg/mL. Further, the values for the IC90 in assay [1] (setting [4]) and in assay [2] (setting [6]) were 3.95 µg/mL and 3.06 µg/mL, respectively.
On the same counts, the results for `CO[C@H]1/C=C\C=C(/C)C(=O)NC2=CC(=O)C(N3CCC3)=C(C[C@@H](C)C[C@H](OC)[C@H](O)[C@@H](C)/C=C(\C)[C@@H]1O)C2=O` [Compound D, 17-(1-Azetidinyl)-7-decarbamyl-17-demethoxygeldanamycin] are 4.04 µg/mL, 0.958 µg/mL, 8.41 µg/mL and 6.18 µg/mL.
As to `CO[C@H]1/C=C\C=C(/C)C(=O)NC2=CC(=O)C(N3CCC3)=C(C[C@@H](C)C[C@H](OC)[C@H](O)[C@@H](C)/C=C(\C)[C@@H]1OC(=O)c1ccccc1)C2=O` [Compound E, 17-(1-Azetidinyl)-7-benzoyl-7-decarbamyl-17-demethoxygeldanamycin], the values for the IC50 in assay [1] and in assay [2] (W2) were 4.29 µg/mL and 1.26 µg/mL, respectively. Besides, the IC90 turned out to be 6.07 µg/mL in assay [1] and 5.43 µg/mL in assay [2] (W2).
Consider `CCC(=O)O[C@H]1/C(C)=C/[C@H](C)[C@@H](O)[C@@H](OC)C[C@H](C)CC2=C(N3CCC3)C(=O)C=C(NC(=O)/C(C)=C/C=C\[C@@H]1OC)C2=O` [Compound F, 17-(1-Azetidinyl)-7-decarbamyl-17-demethoxy-7-propionylgeldanamycin], for which the half-inhibitory concentration (IC50) in assay [1] (setting [3]) worked out at 3.03 µg/mL; in assay [2] (setting [5]), 0.909 µg/mL. The IC90 amounted to 5.54 µg/mL in assay [1] (setting [4]) and 3.74 µg/mL in assay [2] (setting [6]).
For the compound `CO[C@H]1/C=C\C=C(/C)C(=O)NC2=CC(=O)C(N3CCC3)=C(C[C@@H](C)C[C@H](OC)[C@H](O)[C@@H](C)/C=C(\C)[C@@H]1OC(N)=O)C2=O` [Compound G, 17-(1-Azetidinyl)-17-demethoxygeldanamycin], the concentration for half-maximal inhibition (IC50) in assay [1] (setting [3]) came to 0.169 µg/mL; in assay [2] (setting [5]), 0.0683 µg/mL. Further, the values for the IC90 in assay [1] (setting [4]) and in assay [2] (setting [6]) were 0.346 µg/mL and 0.208 µg/mL, respectively.
On the same counts, the results for `OC(c1cc(C(F)(F)F)nc2c(C(F)(F)F)cccc12)C1CCCCN1` (stereo not drawn) [Mefloquine, reference compound] are 0.0138 µg/mL, 0.00163 µg/mL, 0.0291 µg/mL and 0.00409 µg/mL.
